Source: patent US10499641B2 (priority 2010, dated 2019)

These compounds were tested on Phytophthora infestans (assay: not given). Conditions: young tomato plants, sprayed, active ingredient concentration 100 ppm, inoculated 1 day after treatment, evaluation 7 days after inoculation; 100% = no infection.
Format: in vivo

Row | Structure (SMILES) | Eff. %
1 | COCCS(=O)(=O)Cc1ccccc1C1CC(c2csc(C3CCN(C(=O)Cn4nc(C(F)F)cc4C(F)F)CC3)n2)=NO1 (centres unmarked) [Example I-57] | 94%
2 | O=C(Cn1nc(C(F)F)cc1C(F)F)N1CCC(c2nc(C3=NOC(c4cccc(OCC#Cc5cccc6ccccc56)c4)C3)cs2)CC1 (centres unmarked) [Example I-137] | 100%
3 | CCS(=O)(=O)Oc1ccccc1C1CC(c2csc(C3CCN(C(=O)Cn4nc(C(F)(F)F)cc4C)CC3)n2)=NO1 (centres unmarked) [Example I-119] | 89%
4 | O=C(Oc1ccccc1C1CC(c2csc(C3CCN(C(=O)Cn4nc(C(F)F)cc4C(F)F)CC3)n2)=NO1)c1ccc(F)cc1 (centres unmarked) [Example I-132] | 100%
5 | Cc1cc(C(F)(F)F)nn1CC(=O)N1CCC(c2nc(C3=NOC(c4ccccc4OCC#N)C3)cs2)CC1 (centres unmarked) [Example I-140] | 84%
6 | CS(=O)(=O)Oc1ccc(F)c(C2CC(c3csc(C4CCN(C(=O)Cn5nc(C(F)F)cc5C(F)F)CC4)n3)=NO2)c1F (centres unmarked) [Example I-50] | 94%
7 | Cc1cc(C(F)(F)F)nn1CC(=O)N1CCC(c2nc(C3=NOC(c4c(Cl)cccc4OS(C)(=O)=O)C3)cs2)CC1 (centres unmarked) [Example I-103] | 80%
8 | CS(=O)(=O)Oc1cccc(Cl)c1C1CC(c2csc(C3CCN(C(=O)Cn4nc(C(F)F)cc4C(F)F)CC3)n2)=NO1 (centres unmarked) [Example I-102] | 75%
9 | CCON=C(C)c1cccc(C2CC(c3csc(C4CCN(C(=O)Cn5nc(C(F)F)cc5C(F)F)CC4)n3)=NO2)c1 (mixture of isomers) [Example I-5] | 100%
10 | COCC[S+]([O-])Cc1ccccc1C1CC(c2csc(C3CCN(C(=O)Cn4nc(C(F)F)cc4C(F)F)CC3)n2)=NO1 (centres unmarked) [Example I-56] | 94%
11 | CCS(=O)(=O)Oc1cccc(C2CC(c3csc(C4CCN(C(=O)Cn5nc(C(F)(F)F)cc5C)CC4)n3)=NO2)c1 (centres unmarked) [Example I-99] | 100%
12 | N#CCOc1ccccc1C1CC(c2csc(C3CCN(C(=O)Cn4nc(C(F)F)cc4C(F)F)CC3)n2)=NO1 (centres unmarked) [Example I-63] | 94%
13 | Cc1cc(C(F)(F)F)nn1CC(=O)N1CCC(c2nc(C3=NOC(c4ccc(OS(=O)(=O)C5CC5)cc4)C3)cs2)CC1 (centres unmarked) [Example I-98] | 95%
14 | Cc1ccc(C)c(NC(=O)N2CCC(c3nc(C4=NOC(c5c(Cl)cccc5OS(C)(=O)=O)C4)cs3)CC2)c1 (centres unmarked) [Example I-52] | 94%
15 | COCCS(=O)(=O)Cc1ccccc1C1CC(c2csc(C3CCN(C(=O)Cn4nc(C(F)(F)F)cc4C)CC3)n2)=NO1 (centres unmarked) [Example I-45] | 94%
16 | CCON=Cc1cccc(C2CC(c3csc(C4CCN(C(=O)Cn5nc(C(F)(F)F)cc5C)CC4)n3)=NO2)c1 (centres unmarked) [Example I-11] | 100%
17 | Cc1cc(C(F)(F)F)nn1CC(=O)N1CCC(c2nc(C3=NOC(c4cccc(C=NOC(C)C)c4)C3)cs2)CC1 (mixture of isomers) [Example I-8] | 100%
18 | CC(=NOC(C)C)c1cccc(C2CC(c3csc(C4CCN(C(=O)Cn5nc(C(F)F)cc5C(F)F)CC4)n3)=NO2)c1 (mixture of isomers) [Example I-20] | 100%
19 | Cc1cc(C(F)(F)F)nn1CC(=O)N1CCC(c2nc(C3=NOC(c4ccccc4NC=O)C3)cs2)CC1 (centres unmarked) [Example I-109] | 100%
20 | CC(=NOC(C)C)c1ccccc1C1CC(c2csc(C3CCN(C(=O)Cn4nc(C(F)F)cc4C(F)F)CC3)n2)=NO1 (mixture of isomers) [Example I-28] | 100%
21 | CS(=O)(=O)Oc1cc(Cl)ccc1C1CC(c2csc(C3CCN(C(=O)Cn4nc(C(F)F)cc4C(F)F)CC3)n2)=NO1 (centres unmarked) [Example I-70] | 97%
22 | CC(=NOC(C)C)c1cccc(C2CC(c3csc(C4CCN(C(=O)Cn5nc(C(F)(F)F)cc5C)CC4)n3)=NO2)c1 (mixture of isomers) [Example I-9] | 100%
23 | Cc1ccc(Cl)cc1NC(=O)N1CCC(c2nc(C3=NOC(c4ccccc4C=NOC(C)C)C3)cs2)CC1 (mixture of isomers) [Example I-37] | 100%
24 | CCON=Cc1cccc(C2CC(c3csc(C4CCN(C(=O)Nc5cc(Cl)ccc5C)CC4)n3)=NO2)c1 (mixture of isomers) [Example I-12] | 95%
25 | CCON=Cc1ccccc1C1CC(c2csc(C3CCN(C(=O)Nc4cc(Cl)ccc4C)CC3)n2)=NO1 (mixture of isomers) [Example I-33] | 100%
26 | N#CCOc1cccc(C2CC(c3csc(C4CCN(C(=O)Cn5nc(C(F)F)cc5C(F)F)CC4)n3)=NO2)c1 (centres unmarked) [Example I-110] | 100%

Row | Structure (SMILES) | Eff. %
27 | Cc1ccc(Cl)cc1NC(=O)N1CCC(c2nc(C3=NOC(c4cccc(C=NOC(C)C)c4)C3)cs2)CC1 (centres unmarked) [Example I-13] | 100%
28 | Cc1ccc(S(=O)(=O)Oc2ccccc2C2(C)CC(c3csc(C4CCN(C(=O)Cn5nc(C(F)F)cc5C(F)F)CC4)n3)=NO2)cc1 (centres unmarked) [Example I-48] | 94%
29 | Cc1cc(C(F)(F)F)nn1CC(=O)N1CCC(c2nc(C3=NOC(c4cccc(OCC#N)c4)C3)cs2)CC1 (centres unmarked) [Example I-95] | 100%
30 | CCNC(=O)Oc1ccccc1C1CC(c2csc(C3CCN(C(=O)Cn4nc(C(F)F)cc4C(F)F)CC3)n2)=NO1 (centres unmarked) [Example I-136] | 93%
31 | Cc1cc(C(F)(F)F)nn1CC(=O)N1CCC(c2nc(C3=NOC(c4ccccc4C=NOC(C)C)C3)cs2)CC1 (mixture of isomers) [Example I-39] | 100%
32 | C=CCOCc1ccccc1C1CC(c2csc(C3CCN(C(=O)Cn4nc(C(F)F)cc4C(F)F)CC3)n2)=NO1 (centres unmarked) [Example I-139] | 80%
33 | COCCSCc1ccccc1C1CC(c2csc(C3CCN(C(=O)Cn4nc(C(F)F)cc4C(F)F)CC3)n2)=NO1 (centres unmarked) [Example I-100] | 100%
34 | C=CCOCc1ccccc1C1CC(c2csc(C3CCN(C(=O)Cn4nc(C(F)(F)F)cc4C)CC3)n2)=NO1 (centres unmarked) [Example I-93] | 95%
35 | CC(C)ON=Cc1cccc(C2CC(c3csc(C4CCN(C(=O)Cn5nc(C(F)F)cc5C(F)F)CC4)n3)=NO2)c1 (mixture of isomers) [Example I-6] | 100%
36 | CC(C)ON=Cc1ccccc1C1CC(c2csc(C3CCN(C(=O)Cn4nc(C(F)F)cc4C(F)F)CC3)n2)=NO1 (mixture of isomers) [Example I-42] | 100%
37 | O=C(O)c1ccccc1C1CC(c2csc(C3CCN(C(=O)Cn4nc(C(F)F)cc4C(F)F)CC3)n2)=NO1 (centres unmarked) [Example I-134] | 93%
38 | N#CCOc1cc(Cl)ccc1C1CC(c2csc(C3CCN(C(=O)Cn4nc(C(F)F)cc4C(F)F)CC3)n2)=NO1 (centres unmarked) [Example I-71] | 100%
39 | CCON=Cc1cccc(C2CC(c3csc(C4CCN(C(=O)Cn5nc(C(F)F)cc5C(F)F)CC4)n3)=NO2)c1 (mixture of isomers) [Example I-24] | 100%
40 | CC(=NOC(C)C)c1ccccc1C1CC(c2csc(C3CCN(C(=O)Cn4nc(C(F)(F)F)cc4C)CC3)n2)=NO1 (mixture of isomers) [Example I-30] | 100%
41 | CC1(c2ccccc2OS(C)(=O)=O)CC(c2csc(C3CCN(C(=O)Cn4nc(C(F)F)cc4C(F)F)CC3)n2)=NO1 (centres unmarked) [Example I-43] | 94%
42 | C=CCOCc1ccccc1C1CC(c2csc(C3CCN(C(=O)Cn4nc(C(F)F)cc4C(F)F)CC3)n2)=NO1 (centres unmarked) [Example I-94] | 100%
43 | Cc1cc(C(F)F)nn1CC(=O)N1CCC(c2nc(C3=NOC(c4ccccc4OS(C)(=O)=O)C3)cs2)CC1 (centres unmarked) [Example I-51] | 97%
44 | Cc1cc(C(F)(F)F)nn1CC(=O)N1CCC(c2nc(C3=NOC(c4cccc(OS(=O)(=O)C5CC5)c4)C3)cs2)CC1 (centres unmarked) [Example I-101] | 100%
45 | C=CC(=O)Oc1ccccc1C1CC(c2csc(C3CCN(C(=O)Cn4nc(C(F)(F)F)cc4C)CC3)n2)=NO1 (centres unmarked) [Example I-104] | 97%
46 | Cc1cc(C(F)F)nn1CC(=O)N1CCC(c2nc(C3=NOC(C)(c4ccccc4OS(C)(=O)=O)C3)cs2)CC1 (centres unmarked) [Example I-44] | 94%
47 | O=C(Cn1nc(C(F)F)cc1C(F)F)N1CCC(c2nc(C3=NOC(c4ccccc4OC(=O)C4(Cl)CC4)C3)cs2)CC1 (centres unmarked) [Example I-107] | 100%
48 | Cc1cc(C(F)(F)F)nn1CC(=O)N1CCC(c2nc(C3=NOC(c4ccc(OS(C)(=O)=O)cc4)C3)cs2)CC1 (centres unmarked) [Example I-96] | 95%
49 | Cc1cc(C(F)(F)F)nn1CC(=O)N1CCC(c2nc(C3=NOC(c4cccc(F)c4OCC#N)C3)cs2)CC1 (centres unmarked) [Example I-111] | 98%
50 | CCS(=O)(=O)Oc1ccc(C2CC(c3csc(C4CCN(C(=O)Cn5nc(C(F)(F)F)cc5C)CC4)n3)=NO2)cc1 (centres unmarked) [Example I-97] | 95%
51 | Cc1ccc(S(=O)(=O)Oc2ccccc2C2(C)CC(c3csc(C4CCN(C(=O)Cn5nc(C(F)F)cc5C)CC4)n3)=NO2)cc1 (centres unmarked) [Example I-49] | 94%

Each compound was assayed on Plasmopara viticola (assay: Plasmopara test (grapevine)/protective). Conditions: young grapevine plants, sprayed, active ingredient concentration 10 ppm, evaluation 6 days after inoculation; 100% = no infection.
Format: in vivo
Protocol: Plasmopara Test (Grapevine)/Protective
• Solvent: 24.5 parts by weight of acetone • 24.5 parts by weight of dimethylacetamide • Emulsifier: 1 part by weight of alkylaryl polyglycol ether
[To produce an appropriate active ingredient formulation, 1 part by weight of active ingredient is mixed with the specified amounts of solvent and emulsifier, and the concentrate is diluted with water to the desired concentration.
To test for protective efficacy, young plants are sprayed with the active ingredient formulation at the stated application rate. After the spray coating has dried on, the plants are inoculated with an aqueous spore suspension of Plasmopara viticola and then remain in an incubation cabin at approx. 20° C. and 100% relative air humidity for 1 day. Subsequently, the plants are placed in a greenhouse at approx. 21° C. and approx. 90% air humidity for 4 days. The plants are then moistened and placed in an incubation cabin for 1 day.
Evaluation follows 6 days after the inoculation. 0% means an efficacy which corresponds to that of the control, whereas an efficacy of 100% means that no infection is observed.
In this test, the following inventive compounds show, at an active ingredient concentration of 10 ppm, an efficacy of 70% or more: […]

Row | Structure (SMILES) | Eff. %
52 | COCCS(=O)(=O)Cc1ccccc1C1CC(c2csc(C3CCN(C(=O)Cn4nc(C(F)F)cc4C(F)F)CC3)n2)=NO1 (centres unmarked) [Example I-57] | 90%
53 | CCS(=O)(=O)Oc1ccccc1C1CC(c2csc(C3CCN(C(=O)Cn4nc(C(F)(F)F)cc4C)CC3)n2)=NO1 (centres unmarked) [Example I-119] | 100%
54 | O=C(Oc1ccccc1C1CC(c2csc(C3CCN(C(=O)Cn4nc(C(F)F)cc4C(F)F)CC3)n2)=NO1)c1ccc(F)cc1 (centres unmarked) [Example I-132] | 96%
55 | Cc1cc(C(F)(F)F)nn1CC(=O)N1CCC(c2nc(C3=NOC(c4ccccc4OCC#N)C3)cs2)CC1 (centres unmarked) [Example I-140] | 100%
56 | Cc1cc(C(F)(F)F)nn1CC(=O)N1CCC(c2nc(C3=NOC(c4c(Cl)cccc4OS(C)(=O)=O)C3)cs2)CC1 (centres unmarked) [Example I-103] | 100%
57 | CS(=O)(=O)Oc1cccc(Cl)c1C1CC(c2csc(C3CCN(C(=O)Cn4nc(C(F)F)cc4C(F)F)CC3)n2)=NO1 (centres unmarked) [Example I-102] | 100%
58 | CCON=C(C)c1cccc(C2CC(c3csc(C4CCN(C(=O)Cn5nc(C(F)F)cc5C(F)F)CC4)n3)=NO2)c1 (mixture of isomers) [Example I-5] | 87%
59 | N#CCOc1cccc(Cl)c1C1CC(c2csc(C3CCN(C(=O)Cn4nc(C(F)F)cc4C(F)F)CC3)n2)=NO1 (centres unmarked) [Example I-75] | 100%
60 | N#CCOc1ccccc1C1CC(c2csc(C3CCN(C(=O)Cn4nc(C(F)F)cc4C(F)F)CC3)n2)=NO1 (centres unmarked) [Example I-63] | 100%
61 | CC(=O)Nc1ccc(C2CC(c3csc(C4CCN(C(=O)Cn5nc(C(F)F)cc5C(F)F)CC4)n3)=NO2)cc1 (centres unmarked) [Example I-25] | 97%
62 | CON=Cc1cccc(C2CC(c3csc(C4CCN(C(=O)Cn5nc(C(F)F)cc5C(F)F)CC4)n3)=NO2)c1 (mixture of isomers) [Example I-16] | 94%
